Patent US5064813A, “Combination therapy for selected sex steroid dependent cancers” (priority 1989, dated 1991)

What was measured:
advanced breast cancer = conditions: cited from earlier work
serum testosterone = assay: LHRH agonist-induced serum testosterone in the dog (RIA); type: in vivo; conditions: dogs; for prevention of the LHRH agonist-induced rise in serum testosterone: per os three times daily with 50 μg LHRH-A daily (ketoconazole 200 mg; aminoglutethimide 125 mg plus hydrocortisone), first days of treatment, FIG. 2 and 3
Description: Eighteen mongrel dogs weighing between 20-30 kg were randomly divided into three groups. The animals were housed one per cage and fed Purina Dog Chow and tap water ad libitum.
The animals of group 1 were injected daily (at 0700h) with 50 μg of the LHRH agonist [D-Trp^6, des-Gly-NH2^10 ]LHRH ethylamide (LHRH-A). In group 2, the animals were also injected daily with 50 μg of LHRH-A and took in addition 200 mg of ketoconazole per os at 0700h, 1500h and 2300h. The animals of group 3 received daily 50 μg of LHRH-A and 125 mg of aminoglutethimide per os at 0700h, 1500h, 2300h plus 10 mg of hydrocortisone twice daily.
Blood samples were collected at 0700h, 0900h, 1100h and 1500h one day before treatment and every day during the treatment. Plasma was extracted with diethyl ether and testosterone was separated on LH-20 columns before RIA measurements.

testosterone levels = conditions: rodents, in combination with chronic administration of Leuprolide; Santen et al. 1984; cited from earlier work

In the case of CC/C(=C(\c1ccccc1)c1ccc(OCCN(C)C)cc1)c1ccccc1 [Tamoxifen, (Z)-2-[4-(1,2-diphenyl-1-butenyl)phenoxy]-N,N-dimethylethanamine], the “remission of advanced breast cancer, share of the patients treated” value (advanced breast cancer; Tamoxifen alone, Mouridsen et al. 1978) is given as “about 30%” and the “objective remission of breast cancer” value (advanced breast cancer; combined use with the LH-RH agonist Buserelin, Klijn et al. 1984) is given as 35%.

With CCNC(=O)[C@@H]1CCCN1C(=O)[C@H](CCCNC(=N)N)NC(=O)[C@H](CC(C)C)NC(=O)[C@@H](Cc1c[nH]c2ccccc12)NC(=O)[C@H](Cc1ccc(O)cc1)NC(=O)[C@H](CO)NC(=O)[C@H](Cc1c[nH]c2ccccc12)NC(=O)[C@H](Cc1c[nH]cn1)NC(=O)[C@@H]1CCC(=O)N1 [[D-Trp^6 des-Gly-NH2^10]LHRH ethylamide, [D-Trp^6, des-Gly-NH2^10]LHRH ethylamide] the “level of serum testosterone on day 19” value (serum testosterone; daily injection of 50 μg, day 19, FIG. 1) was “near-castration levels” and the “increase in serum testosterone” value (serum testosterone; daily injection of 50 μg, one to six days following start of treatment, FIG. 1) was “approximately 500 % above control”.

With CCC1(c2ccc(N)cc2)CCC(=O)NC1=O (stereo not shown) [aminoglutethimide, 3-(4-aminophenyl)-3-ethyl-2,6-piperidinedione] the “prevention of the LHRH agonist-induced rise in serum testosterone” value (serum testosterone) was “almost completely prevented”.

In the case of CC(=O)N1CCN(c2ccc(OCC3COC(Cn4ccnc4)(c4ccc(Cl)cc4Cl)O3)cc2)CC1 (stereo not shown) [ketoconazole], the “prevention of the LHRH agonist-induced rise in serum testosterone” value (serum testosterone) is given as “almost completely prevented” and the “basal and Leuprolide stimulated testosterone levels” value (testosterone levels) is given as “decreased”.
